Source: ChEMBL document CHEMBL5137068, “Discovery of Hexahydrofuro[3,2-b]furans as New Kinase-Selective and Orally Bioavailable JAK3 Inhibitors for the Treatment of Leukemia Harboring a JAK3 Activating Mutant” (J Med Chem, 2022)
Calls of active or inactive are those of the source. The calls are words filed in the database; no cut-off is given here.

What was measured:
U-937 [1] = assay: Induction of cell cycle arrest in human U-937 cells assessed as accumulation at G0/G1 phase at 100 nM measured after 24 hrs by propidium iodide staining based flow cytometric analysis (reference value: 62.95%); assay type: functional
U-937 [2] = assay: Antitumor activity against human U-937 cells xenografted in po dosed CB17-SCID mouse assessed as tumor growth inhibition twice daily for 10 days; assay type: functional, organism-based; details: time 10.0 day, DDE = dose-dependent effect
[3] = biological target: Tyrosine-protein kinase ITK/TSK (Homo sapiens) (UniProt Q08881); assay: Inhibition of ITK (unknown origin) at 0.5 uM assessed as competition rate relative to control
Chain of Tyrosine-protein kinase ITK/TSK (Homo sapiens) (Q08881 whole entry): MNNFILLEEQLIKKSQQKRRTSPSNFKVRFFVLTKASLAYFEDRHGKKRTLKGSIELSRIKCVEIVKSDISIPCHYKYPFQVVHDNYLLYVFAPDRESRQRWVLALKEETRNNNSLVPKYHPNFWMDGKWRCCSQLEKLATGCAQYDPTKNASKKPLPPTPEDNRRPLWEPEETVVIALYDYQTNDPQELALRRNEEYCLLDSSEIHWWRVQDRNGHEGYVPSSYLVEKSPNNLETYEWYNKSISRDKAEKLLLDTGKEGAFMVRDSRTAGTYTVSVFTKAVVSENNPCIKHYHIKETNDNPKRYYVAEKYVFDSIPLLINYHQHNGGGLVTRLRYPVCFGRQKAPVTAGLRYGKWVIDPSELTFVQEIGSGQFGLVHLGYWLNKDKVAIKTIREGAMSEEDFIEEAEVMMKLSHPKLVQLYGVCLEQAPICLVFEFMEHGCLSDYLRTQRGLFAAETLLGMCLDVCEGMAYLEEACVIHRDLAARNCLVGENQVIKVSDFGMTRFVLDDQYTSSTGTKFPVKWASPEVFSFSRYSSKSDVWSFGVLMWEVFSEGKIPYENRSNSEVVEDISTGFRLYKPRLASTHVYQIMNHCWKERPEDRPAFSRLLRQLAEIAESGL

[4] = biological target: Cyclin-Y/Cyclin-dependent kinase 16 (Homo sapiens, UniProt Q00536); assay: Inhibition of human CDK16/cyclin-Y protein-protein complex; assay type: protein-complex assay
Chain of Cyclin-Y/Cyclin-dependent kinase 16 (Q00536 whole entry): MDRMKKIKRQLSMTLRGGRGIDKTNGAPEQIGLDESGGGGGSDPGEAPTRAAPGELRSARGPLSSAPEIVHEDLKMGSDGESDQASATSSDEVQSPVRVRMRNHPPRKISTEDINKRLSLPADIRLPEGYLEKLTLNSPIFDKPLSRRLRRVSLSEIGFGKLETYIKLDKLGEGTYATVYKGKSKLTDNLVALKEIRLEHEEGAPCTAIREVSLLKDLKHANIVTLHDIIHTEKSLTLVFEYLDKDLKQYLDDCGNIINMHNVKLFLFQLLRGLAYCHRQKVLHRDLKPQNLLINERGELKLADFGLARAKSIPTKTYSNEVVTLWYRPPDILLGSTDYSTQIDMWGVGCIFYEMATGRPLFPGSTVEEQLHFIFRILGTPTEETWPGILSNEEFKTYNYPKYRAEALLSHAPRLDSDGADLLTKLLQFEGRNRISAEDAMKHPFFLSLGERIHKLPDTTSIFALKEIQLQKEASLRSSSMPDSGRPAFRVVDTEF
Chain of Cyclin-Y/Cyclin-dependent kinase 16 (Q8ND76 whole entry, further chain): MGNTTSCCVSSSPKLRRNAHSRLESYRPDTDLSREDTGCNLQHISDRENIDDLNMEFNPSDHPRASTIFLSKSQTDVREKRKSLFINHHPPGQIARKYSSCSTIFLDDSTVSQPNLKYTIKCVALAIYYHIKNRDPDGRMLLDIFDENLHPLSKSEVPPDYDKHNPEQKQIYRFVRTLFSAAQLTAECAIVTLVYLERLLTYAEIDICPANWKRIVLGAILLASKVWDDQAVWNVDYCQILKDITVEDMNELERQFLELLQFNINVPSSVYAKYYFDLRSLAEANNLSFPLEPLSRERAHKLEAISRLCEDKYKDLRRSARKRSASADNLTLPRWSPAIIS

[5] = biological target: T1, Tyrosine-protein kinase JAK3 (Homo sapiens) (UniProt P52333); assay: Inhibition of JAK3 activation in human U-937 cells assessed as decrease in P-STAT5 incubated for 0 to 24 hrs by Western blot analysis; assay type: cell-based; details: time 0-24 hrs, DDE = dose-dependent effect
T1 sequence (whole entry): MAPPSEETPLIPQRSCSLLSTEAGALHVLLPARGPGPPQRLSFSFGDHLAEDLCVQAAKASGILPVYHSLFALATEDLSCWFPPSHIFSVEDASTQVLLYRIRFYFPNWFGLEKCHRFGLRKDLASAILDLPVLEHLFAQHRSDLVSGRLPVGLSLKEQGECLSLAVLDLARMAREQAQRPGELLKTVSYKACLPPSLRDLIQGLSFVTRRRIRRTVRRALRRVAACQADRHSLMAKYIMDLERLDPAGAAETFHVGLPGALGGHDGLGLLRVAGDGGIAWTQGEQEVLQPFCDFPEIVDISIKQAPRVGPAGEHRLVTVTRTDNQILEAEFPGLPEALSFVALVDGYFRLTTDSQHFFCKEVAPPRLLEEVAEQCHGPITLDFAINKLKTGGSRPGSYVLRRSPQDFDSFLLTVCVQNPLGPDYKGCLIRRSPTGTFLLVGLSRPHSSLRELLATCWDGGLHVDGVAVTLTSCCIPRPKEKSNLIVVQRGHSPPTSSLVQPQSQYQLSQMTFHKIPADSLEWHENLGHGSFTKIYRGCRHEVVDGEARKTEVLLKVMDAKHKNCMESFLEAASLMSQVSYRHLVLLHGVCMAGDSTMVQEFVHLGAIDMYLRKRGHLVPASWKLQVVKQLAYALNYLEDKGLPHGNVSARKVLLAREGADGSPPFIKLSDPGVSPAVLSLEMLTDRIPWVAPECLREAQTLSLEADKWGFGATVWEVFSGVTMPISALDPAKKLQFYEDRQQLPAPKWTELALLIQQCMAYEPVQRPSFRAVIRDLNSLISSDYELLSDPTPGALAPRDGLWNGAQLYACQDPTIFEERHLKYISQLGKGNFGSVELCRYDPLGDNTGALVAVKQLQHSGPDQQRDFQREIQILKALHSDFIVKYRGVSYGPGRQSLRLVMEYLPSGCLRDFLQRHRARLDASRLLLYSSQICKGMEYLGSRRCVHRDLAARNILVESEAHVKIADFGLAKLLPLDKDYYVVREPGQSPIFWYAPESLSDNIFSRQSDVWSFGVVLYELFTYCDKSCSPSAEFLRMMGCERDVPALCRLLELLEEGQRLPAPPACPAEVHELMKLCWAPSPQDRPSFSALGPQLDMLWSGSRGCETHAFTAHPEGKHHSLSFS

U-937 [6] = assay: Induction of cell cycle arrest in human U-937 cells assessed as downregulation of Cyclic B1 at 0 to 300 nM measured after 24 hrs by western blot analysis; assay type: functional, cell-based; details: dose 0-300 nM
[7] = biological target: Signal transducer and activator of transcription 3 (Homo sapiens) (UniProt P40763); assay: Inhibition of STAT3 activation in human U-937 cells assessed as decrease in P-STAT3 at 100 uM by Western blot analysis; assay type: cell-based; details: time 0-24 hrs, TDE = time-dependent effect
Chain of Signal transducer and activator of transcription 3 (Homo sapiens) (P40763 whole entry): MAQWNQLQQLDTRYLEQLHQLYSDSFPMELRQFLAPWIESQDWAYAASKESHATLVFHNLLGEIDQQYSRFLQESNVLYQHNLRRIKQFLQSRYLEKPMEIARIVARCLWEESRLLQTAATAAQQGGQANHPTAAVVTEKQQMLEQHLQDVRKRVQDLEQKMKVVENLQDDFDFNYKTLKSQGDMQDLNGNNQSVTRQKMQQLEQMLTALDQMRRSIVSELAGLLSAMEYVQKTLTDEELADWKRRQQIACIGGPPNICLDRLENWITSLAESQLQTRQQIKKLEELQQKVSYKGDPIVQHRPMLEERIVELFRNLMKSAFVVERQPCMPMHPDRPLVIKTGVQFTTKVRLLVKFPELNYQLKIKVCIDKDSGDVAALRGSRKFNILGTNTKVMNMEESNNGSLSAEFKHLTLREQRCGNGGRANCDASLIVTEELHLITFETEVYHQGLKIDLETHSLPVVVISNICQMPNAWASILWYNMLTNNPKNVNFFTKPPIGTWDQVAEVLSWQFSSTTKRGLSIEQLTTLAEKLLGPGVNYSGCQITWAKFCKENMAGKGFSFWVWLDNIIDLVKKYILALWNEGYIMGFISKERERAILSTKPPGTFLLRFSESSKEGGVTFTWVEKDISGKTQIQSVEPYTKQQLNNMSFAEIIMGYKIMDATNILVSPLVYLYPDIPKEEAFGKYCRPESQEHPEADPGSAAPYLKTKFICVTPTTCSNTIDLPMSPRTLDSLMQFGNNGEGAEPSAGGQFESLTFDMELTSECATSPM

[8] = AUC(0 to infinity) in 12 hr fasted SPF Sprague-Dawley rat at 5 mg/kg, iv upon 2 hrs fasting post-administration measured upto 24 hrs; assay type: ADME, organism-based; parameters: dose 5 mg/kg, time < 24 hrs, route iv; details: in vivo
[9] = biological target: Tyrosine-protein kinase ITK/TSK (Homo sapiens) (UniProt Q08881); assay: Inhibition of ITK (unknown origin) at 0.5 uM relative to control
[10] = Half life in 12 hr fasted SPF Sprague-Dawley rat at 15 mg/kg, po upon 2 hrs fasting post-administration measured upto 24 hrs; assay type: ADME, organism-based; details: in vivo
BaF3 = assay: cells; details: Mus musculus, BaF3, 72 h
U-937 [11] = assay: Induction of cell cycle arrest in human U-937 cells assessed as accumulation at G2/M phase at 3.7 nM measured after 24 hrs by propidium iodide staining based flow cytometric analysis (reference value: 21.41%); assay type: functional
[12] = biological target: Receptor tyrosine-protein kinase erbB-4 (Homo sapiens) (UniProt Q15303); assay: Inhibition of HER4 (unknown origin) at 0.5 uM assessed as competition rate relative to control
Chain of Receptor tyrosine-protein kinase erbB-4 (Homo sapiens) (Q15303 whole entry): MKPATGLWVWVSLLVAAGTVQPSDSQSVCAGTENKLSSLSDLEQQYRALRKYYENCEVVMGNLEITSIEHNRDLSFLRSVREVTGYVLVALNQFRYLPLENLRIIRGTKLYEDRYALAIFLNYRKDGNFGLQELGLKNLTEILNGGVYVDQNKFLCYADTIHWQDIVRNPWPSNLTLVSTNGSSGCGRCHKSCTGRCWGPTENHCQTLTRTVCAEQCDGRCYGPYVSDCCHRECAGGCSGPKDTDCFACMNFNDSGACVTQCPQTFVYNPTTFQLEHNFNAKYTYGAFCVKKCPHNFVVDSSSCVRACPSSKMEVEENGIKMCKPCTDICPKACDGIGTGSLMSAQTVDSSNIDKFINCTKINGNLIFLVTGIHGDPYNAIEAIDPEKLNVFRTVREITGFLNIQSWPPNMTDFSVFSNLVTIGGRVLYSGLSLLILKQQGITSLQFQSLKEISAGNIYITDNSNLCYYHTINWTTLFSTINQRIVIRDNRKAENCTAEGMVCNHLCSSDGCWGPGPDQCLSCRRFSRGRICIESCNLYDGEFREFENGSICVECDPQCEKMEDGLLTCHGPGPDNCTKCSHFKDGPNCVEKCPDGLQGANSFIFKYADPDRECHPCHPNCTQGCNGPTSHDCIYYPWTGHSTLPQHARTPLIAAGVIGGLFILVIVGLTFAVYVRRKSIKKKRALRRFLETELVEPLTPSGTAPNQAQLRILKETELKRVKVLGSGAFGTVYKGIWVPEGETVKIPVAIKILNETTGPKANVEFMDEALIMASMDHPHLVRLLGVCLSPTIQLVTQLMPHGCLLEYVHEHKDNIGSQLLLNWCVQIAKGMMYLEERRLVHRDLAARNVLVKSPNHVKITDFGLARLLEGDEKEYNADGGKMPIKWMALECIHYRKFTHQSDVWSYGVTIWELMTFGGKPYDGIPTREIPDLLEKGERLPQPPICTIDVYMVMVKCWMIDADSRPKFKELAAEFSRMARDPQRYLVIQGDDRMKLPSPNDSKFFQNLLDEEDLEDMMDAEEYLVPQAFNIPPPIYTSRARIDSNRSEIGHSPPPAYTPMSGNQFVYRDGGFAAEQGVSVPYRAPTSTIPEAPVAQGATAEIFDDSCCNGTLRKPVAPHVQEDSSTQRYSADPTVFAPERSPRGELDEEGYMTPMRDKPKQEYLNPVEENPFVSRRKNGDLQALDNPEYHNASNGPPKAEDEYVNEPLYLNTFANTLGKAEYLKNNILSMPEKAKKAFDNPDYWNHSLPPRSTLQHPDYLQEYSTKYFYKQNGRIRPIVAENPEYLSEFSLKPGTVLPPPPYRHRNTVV

[13] = biological target: Cytoplasmic tyrosine-protein kinase BMX (Homo sapiens) (UniProt P51813); assay: Inhibition of BMX (unknown origin) at 0.5 uM relative to control
Chain of Cytoplasmic tyrosine-protein kinase BMX (Homo sapiens) (P51813 whole entry): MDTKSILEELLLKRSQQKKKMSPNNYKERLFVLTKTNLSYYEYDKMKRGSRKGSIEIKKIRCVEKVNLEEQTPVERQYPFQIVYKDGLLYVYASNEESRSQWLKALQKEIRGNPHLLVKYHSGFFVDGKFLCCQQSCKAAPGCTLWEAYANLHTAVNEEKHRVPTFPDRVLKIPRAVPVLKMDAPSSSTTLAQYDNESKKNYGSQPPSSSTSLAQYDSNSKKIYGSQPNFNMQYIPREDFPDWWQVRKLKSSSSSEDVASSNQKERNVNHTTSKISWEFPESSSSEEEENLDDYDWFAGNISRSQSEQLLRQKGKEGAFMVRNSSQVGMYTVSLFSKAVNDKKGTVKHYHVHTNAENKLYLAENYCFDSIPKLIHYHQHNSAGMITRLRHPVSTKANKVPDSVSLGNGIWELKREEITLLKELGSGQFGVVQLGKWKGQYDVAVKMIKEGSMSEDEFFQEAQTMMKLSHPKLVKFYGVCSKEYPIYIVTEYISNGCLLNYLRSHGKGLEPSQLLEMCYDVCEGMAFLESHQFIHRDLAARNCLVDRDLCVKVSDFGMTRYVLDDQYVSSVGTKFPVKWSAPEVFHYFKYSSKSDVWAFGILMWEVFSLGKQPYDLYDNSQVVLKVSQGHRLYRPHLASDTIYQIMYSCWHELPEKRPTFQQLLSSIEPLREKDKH

U-937 [14] = assay: Induction of cell cycle arrest in human U-937 cells assessed as downregulation of Cyclic E1 at 0 to 300 nM measured after 24 hrs by western blot analysis; assay type: functional, cell-based; details: dose 0-300 nM
[15] = biological target: NUAK family SNF1-like kinase 1 (Homo sapiens, UniProt O60285); assay: Inhibition of human ARK5
Chain of NUAK family SNF1-like kinase 1 (O60285 whole entry): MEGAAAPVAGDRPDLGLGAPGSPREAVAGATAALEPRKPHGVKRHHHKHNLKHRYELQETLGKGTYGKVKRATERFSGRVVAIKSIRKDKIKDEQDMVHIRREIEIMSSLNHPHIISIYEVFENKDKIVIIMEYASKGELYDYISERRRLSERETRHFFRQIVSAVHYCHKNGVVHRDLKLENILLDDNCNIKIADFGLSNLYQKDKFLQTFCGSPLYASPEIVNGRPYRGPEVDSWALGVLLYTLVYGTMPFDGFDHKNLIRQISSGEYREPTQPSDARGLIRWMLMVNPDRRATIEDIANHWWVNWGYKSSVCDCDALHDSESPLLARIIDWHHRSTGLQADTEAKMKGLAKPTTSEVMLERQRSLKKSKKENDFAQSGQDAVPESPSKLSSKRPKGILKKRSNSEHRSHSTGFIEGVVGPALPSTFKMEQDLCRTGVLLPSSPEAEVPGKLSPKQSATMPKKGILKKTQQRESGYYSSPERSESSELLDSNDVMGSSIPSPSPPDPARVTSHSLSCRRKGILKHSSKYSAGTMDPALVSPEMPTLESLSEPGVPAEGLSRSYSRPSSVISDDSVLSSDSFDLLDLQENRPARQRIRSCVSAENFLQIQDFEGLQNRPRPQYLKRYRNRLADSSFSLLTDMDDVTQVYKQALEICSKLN

[16] = biological target: NUAK family SNF1-like kinase 1 (Homo sapiens) (UniProt O60285); assay: Inhibition of human ARK5 at 0.5 uM assessed as competition rate relative to control
Chain of NUAK family SNF1-like kinase 1 (Homo sapiens) (O60285 whole entry): as above

[17] = biological target: Cyclin-dependent kinase 16 (Homo sapiens) (UniProt Q00536); assay: Inhibition of human CDK16 at 0.5 uM assessed as competition rate relative to control
Chain of Cyclin-dependent kinase 16 (Homo sapiens) (Q00536 whole entry): as the sequence (Q00536 whole entry) above

U-937 [18] = assay: Induction of cell cycle arrest in human U-937 cells assessed as downregulation of CDK4 at 0 to 300 nM measured after 24 hrs by western blot analysis; assay type: functional, cell-based; details: dose 0-300 nM
U-937 [19] = assay: cells; details: Homo sapiens, U-937, 72 h

inhibition [3]: 40%
IC50 [4]: 135 nM
inhibition [5]: Dde
inhibition [7]: Tde
AUC(0-inf) [8]: 537 ng·h/mL
inhibition [9]: 92%
half-life [10]: 58.8 min
IC50 (BaF3): 134 nM
inhibition [12]: 40%
inhibition [13]: 71%
IC50 [15]: 25 nM
inhibition [16]: 70%
inhibition [17]: 70%
IC50 (U-937 [19]): 20.2 nM
Compound: C=CC(=O)Nc1cc(Nc2ncc(Cl)c(O[C@@H]3CO[C@H]4[C@@H]3OC[C@H]4OC)n2)ccc1N(C)CCN(C)C
Activity (U-937 [1]): 72.06%
Activity (U-937 [2]): Dde
Activity (U-937 [6]): Active
Activity (U-937 [11]): 23.11%
Activity (U-937 [14]): Active
Activity (U-937 [18]): Active
